We go through 53 molecules from patent publication US20080312435A1, “Imine Compound” (TAISHO PHARMACEUTICAL CO., LTD., priority 2004, published 2008).

Each structure is given as a SMILES string.

For one data set, the target named is T1, human CB2 receptor (Homo sapiens, UniProt P34972).
T1 construct: expressed in transfected cells
Kind of data set: Human CB2 receptor binding inhibition test ([3H]CP-55,940, CHO membrane fractions). The following applies: [3H]CP-55,940, membrane fractions of CHO cells stably expressing human CB2 receptor, 25° C., 2 hours; read-out: CB2 IC50 (Inhibition of binding to human CB2 receptor). An excerpt: Human CB2 Receptor Binding Inhibition Test
First, cDNA sequence (Munro et al., Nature, 1993, 365, 61-65) encoding a human CB2 receptor was inserted in the forward direction in an animal-cell expression vector, pTARGET Vector (manufactured by Promega) at a region downstream of a CMV promoter. Host cells CHO-DHFR(−) were transfected with the obtained expression vector with the aid of Lipofectamine (manufactured by Invitrogen) to obtain cells capable of stably expressing the CB2 receptor.
After the filtrate was washed with an assay buffer containing 0.1% bovine serum albumin, the radioactivity on the glass filter was measured by a liquid scintillation counter. Nonspecific binding was measured in the presence of 2.0 μM CP-55,940 (manufactured by Tocris). 50% inhibitory concentration (IC50 value) of the test compound for the specific binding was obtained.

T1 sequence (P34972 whole entry): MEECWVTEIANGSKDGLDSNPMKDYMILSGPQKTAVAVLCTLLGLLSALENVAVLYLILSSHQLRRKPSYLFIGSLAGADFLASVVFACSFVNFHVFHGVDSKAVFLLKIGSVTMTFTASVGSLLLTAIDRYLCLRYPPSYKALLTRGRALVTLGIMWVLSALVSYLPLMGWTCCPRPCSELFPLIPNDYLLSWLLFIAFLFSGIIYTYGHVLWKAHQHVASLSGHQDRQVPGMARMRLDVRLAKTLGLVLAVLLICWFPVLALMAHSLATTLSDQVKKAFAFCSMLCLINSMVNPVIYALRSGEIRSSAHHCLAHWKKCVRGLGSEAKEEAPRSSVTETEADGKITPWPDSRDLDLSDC

As usually defined, the melting point is the temperature, or range, at which the solid turns liquid. The IC50 is the concentration needed to halve the response being measured. In the case of `Cc1ccn(CC2CC2)/c(=N/C(=O)c2cccc(C(F)(F)F)c2F)c1` [compound 23], the melting point fell in the range of 81 to 83 °C. The IC50 on human CB2 receptor amounted to 8.9 nM.

`Cc1cc/c(=N\C(=O)c2cccc(C(F)(F)F)c2F)n(CC2CC2)c1` [compound 24] registered a melting point of 118 to 120 °C. Further, the IC50 at human CB2 receptor came to 7.5 nM.

On to `Cc1ccc/c(=N\C(=O)c2cccc(C(F)(F)F)c2F)n1CC1CC1` [compound 25], for which the melting point was in the range of 96 to 98 °C. Further, at human CB2 receptor, the IC50 was 17.4 nM.

In the case of `O=C(/N=c1\cc(C(F)(F)F)ccn1CC1CC1)c1cccc(C(F)(F)F)c1F` [compound 29], the melting point lay within 85 to 86 °C. The half-maximal inhibitory concentration (IC50) at human CB2 receptor was 8.6 nM.

For the molecule `O=C(/N=c1\cc(Cl)ccn1CC1CC1)c1cccc(C(F)(F)F)c1F` [compound 33], the melting point is 91 to 93 °C. Also, the IC50 on human CB2 receptor turned out to be 8.2 nM.

`O=C(/N=c1\ccc(Cl)cn1CC1CC1)c1cccc(C(F)(F)F)c1F` [compound 34] registered a melting point of 117 to 119 °C. For the same molecule, the half-maximal inhibitory concentration (IC50) on human CB2 receptor worked out at 6.6 nM.

Turning to `O=C(/N=c1\cccc(Cl)n1CC1CC1)c1cccc(C(F)(F)F)c1F` [compound 35], the melting point is 81 to 83 °C. The 50% inhibitory concentration (IC50) at human CB2 receptor stood at 3.4 nM.

`O=C(/N=c1\ccc(F)cn1CC1CC1)c1cccc(C(F)(F)F)c1F` [compound 37] had a melting point of 89 to 91 °C. Further, the IC50 on human CB2 receptor was 11.3 nM.

Molecule `Cc1c(Br)cc/c(=N\C(=O)c2cccc(C(F)(F)F)c2F)n1CC1CC1` [compound 41] yielded a melting point of 135 to 137 °C. The IC50 on human CB2 receptor was 1.4 nM.

`Cc1c/c(=N\C(=O)c2cccc(C(F)(F)F)c2F)n(CC2CC2)c(C)c1Br` [compound 46] yielded a melting point of 121 to 122 °C. On human CB2 receptor, the 50% inhibitory concentration (IC50) came to 1.2 nM.

In turn, `CC(C)(C)c1c/c(=N\C(=O)c2cc(C(F)(F)F)ccc2F)n(CC2CC2)s1` [compound 58] yielded a melting point of 63 to 65 °C. For the same molecule, on human CB2 receptor, the IC50 was determined as 1.8 nM.

Consider `Cc1cs/c(=N\C(=O)c2cccc(C(F)(F)F)c2F)n1CC1CC1` [compound 63], for which the melting point fell in the range of 109 to 111 °C. In addition, the concentration for half-maximal inhibition (IC50) on human CB2 receptor was 4.9 nM.

For the molecule `Cc1cn(CC2CC2)/c(=N/C(=O)c2cccc(C(F)(F)F)c2F)s1` [compound 67], the melting point fell in the range of 129 to 130 °C. Further, at human CB2 receptor, the IC50 worked out at 3 nM.

With `CCn1c(C)c(C)s/c1=N\C(=O)c1cccc(C(F)(F)F)c1F` [compound 70], the melting point was 198 to 200 °C. Further, the IC50 at human CB2 receptor amounted to 14.9 nM.

`CCc1ccccc1C(=O)/N=c1\sc(C)c(C)n1CC1CC1` [compound 71] had a melting point of 150 to 152 °C. For the same molecule, on human CB2 receptor, the IC50 was determined as 5.9 nM.

`Cc1s/c(=N\C(=O)c2ccccc2C(F)(F)F)n(CC2CC2)c1C` [compound 74]: the melting point was 125 to 127 °C. The IC50 on human CB2 receptor amounted to 4.6 nM.

`Cc1s/c(=N\C(=O)c2ccccc2Br)n(CC2CC2)c1C` [compound 76] returned a melting point of 114 to 116 °C. Besides, the IC50 on human CB2 receptor amounted to 14.4 nM.

Consider `Cc1s/c(=N\C(=O)c2cccc(Br)c2)n(CC2CC2)c1C` [compound 77], for which the melting point lay within 159 to 160 °C. At human CB2 receptor, the half-maximal inhibitory concentration (IC50) amounted to 19.3 nM.

In turn, `Cc1s/c(=N\C(=O)c2ccccc2I)n(CC2CC2)c1C` [compound 78] showed a melting point of 130 to 132 °C. Moreover, the IC50 on human CB2 receptor stood at 9.8 nM.

Molecule `Cc1s/c(=N\C(=O)c2cccc(Cl)c2F)n(CC2CC2)c1C` [compound 79] showed a melting point of 109 to 111 °C. The IC50 on human CB2 receptor stood at 8.4 nM.

In turn, `Cc1s/c(=N\C(=O)c2cc(F)ccc2Cl)n(CC2CC2)c1C` [compound 80] returned a melting point of 139 to 140 °C. Moreover, the IC50 on human CB2 receptor came to 17.9 nM.

In turn, `Cc1s/c(=N\C(=O)c2cc(F)c(F)cc2Cl)n(CC2CC2)c1C` [compound 85] registered a melting point of 161 to 163 °C. The IC50 at human CB2 receptor was determined as 18.9 nM.

`Cc1s/c(=N\C(=O)c2cc(F)c(Cl)cc2Cl)n(CC2CC2)c1C` [compound 86] displayed a melting point of 59 to 60 °C. Further, at human CB2 receptor, the IC50 is 6.5 nM.

`COc1ccc(OC)c(C(=O)/N=c2\sc(C)c(C)n2CC2CC2)c1` [compound 88] had a melting point of 124 to 126 °C. The concentration for half-maximal inhibition (IC50) on human CB2 receptor came out at 17.8 nM.

In turn, `Cc1ccc(F)cc1C(=O)/N=c1\sc(C)c(C)n1CC1CC1` [compound 89] showed a melting point of 82 to 84 °C. In addition, the IC50 on human CB2 receptor stood at 9.8 nM.

`Cc1cc(Cl)ccc1C(=O)/N=c1\sc(C)c(C)n1CC1CC1` [compound 90] showed a melting point of 124 to 125 °C. At human CB2 receptor, the IC50 is 6.5 nM.

As for `Cc1ccc(C(=O)/N=c2\sc(C)c(C)n2CC2CC2)c(Br)c1` [compound 91], the melting point fell in the range of 90 to 92 °C. Moreover, the IC50 at human CB2 receptor was determined as 7.9 nM.

As to `Cc1s/c(=N\C(=O)c2cc(C(F)(F)F)ccc2F)n(CC2CC2)c1C` [compound 92], the melting point lay in the range of 122 to 123 °C. Besides, the IC50 on human CB2 receptor is 3.9 nM.

In the case of `Cc1s/c(=N\C(=O)c2cc(F)ccc2C(F)(F)F)n(CC2CC2)c1C` [compound 93], the melting point is 131 to 133 °C. Also, the IC50 on human CB2 receptor was determined as 17.6 nM.

As to `Cc1s/c(=N\C(=O)c2c(F)cccc2C(F)(F)F)n(CC2CC2)c1C` [compound 94], the melting point was in the range of 111 to 113 °C. In addition, the IC50 at human CB2 receptor stood at 2.9 nM.

Molecule `COc1ccc(F)cc1C(=O)/N=c1\sc(C)c(C)n1CC1CC1` [compound 96] displayed a melting point of 107 to 109 °C. Besides, on human CB2 receptor, the IC50 turned out to be 7.7 nM.

In turn, `COc1ccc(Cl)cc1C(=O)/N=c1\sc(C)c(C)n1CC1CC1` [compound 97] showed a melting point of 121 to 123 °C. Further, on human CB2 receptor, the IC50 worked out at 3.3 nM.

For the molecule `Cc1s/c(=N\C(=O)CC2CCCC2)n(CC2CC2)c1C` [compound 100], the melting point fell in the range of 108 to 109 °C. For the same molecule, on human CB2 receptor, the IC50 was found to be 7 nM.

Regarding `COCCCn1c(C)c(C)s/c1=N\C(=O)c1cccc(C(F)(F)F)c1F` [compound 105], the melting point is 104 to 106 °C. Also, the IC50 at human CB2 receptor is 1.7 nM.

`CCc1s/c(=N\C(=O)c2cccc(C(F)(F)F)c2F)n(CC2CC2)c1C` [compound 109] showed a melting point of 164 to 166 °C. Also, the IC50 on human CB2 receptor is 1.3 nM.

As for `Cc1c(C(C)C)s/c(=N\C(=O)c2cccc(C(F)(F)F)c2F)n1CC1CC1` [compound 113], the melting point was 64 to 66 °C. Moreover, at human CB2 receptor, the IC50 turned out to be 1.1 nM.

`COCCn1c(C)c(C(C)C)s/c1=N\C(=O)c1cccc(C(F)(F)F)c1F` [compound 114] had a melting point of 132 to 134 °C. The IC50 on human CB2 receptor came out at 1.6 nM.

Molecule `Cc1c(C(C)(C)C)s/c(=N\C(=O)c2ccccc2C(F)(F)F)n1C` [compound 117] registered a melting point of 74 to 76 °C. Also, the IC50 at human CB2 receptor worked out at 5.6 nM.

As for `Cc1c(C(C)(C)C)s/c(=N\C(=O)c2ccccc2Cl)n1C` [compound 119], the melting point fell in the range of 119 to 121 °C. In addition, the concentration for half-maximal inhibition (IC50) at human CB2 receptor turned out to be 18.5 nM.

`Cc1c(C(C)(C)C)s/c(=N\C(=O)c2ccccc2Br)n1C` [compound 120] registered a melting point of 182 to 184 °C. Further, the IC50 at human CB2 receptor came out at 7.4 nM.

Turning to `Cc1c(C(C)(C)C)s/c(=N\C(=O)c2ccccc2I)n1C` [compound 122], the melting point was 83 to 85 °C. Further, the IC50 at human CB2 receptor amounted to 8.9 nM.

In turn, `Cc1c(C(C)(C)C)s/c(=N\C(=O)c2cccc(Cl)c2F)n1C` [compound 129] yielded a melting point of 203 to 205 °C. Moreover, the IC50 at human CB2 receptor is 7.1 nM.

In the case of `Cc1c(C(C)(C)C)s/c(=N\C(=O)c2cc(F)ccc2Cl)n1C` [compound 130], the melting point lay in the range of 125 to 126 °C. Moreover, the half-inhibitory concentration (IC50) at human CB2 receptor was found to be 8.5 nM.

`Cc1c(C(C)(C)C)s/c(=N\C(=O)c2cc(F)ccc2Br)n1C` [compound 131] showed a melting point of 161 to 162 °C. Also, the IC50 at human CB2 receptor was 5.6 nM.

Molecule `Cc1c(C(C)(C)C)s/c(=N\C(=O)c2cc(Br)ccc2F)n1C` [compound 132] yielded a melting point of 144 to 145 °C. Further, at human CB2 receptor, the IC50 worked out at 15.7 nM.

As to `Cc1c(C(C)(C)C)s/c(=N\C(=O)c2cc(Cl)ccc2Cl)n1C` [compound 133], the melting point fell in the range of 171 to 173 °C. Besides, at human CB2 receptor, the IC50 stood at 7.3 nM.

The molecule `Cc1c(C(C)(C)C)s/c(=N\C(=O)c2c(F)ccc(F)c2F)n1C` [compound 134] displayed a melting point of 143 to 145 °C. Besides, at human CB2 receptor, the IC50 was determined as 6.8 nM.

`Cc1c(C(C)(C)C)s/c(=N\C(=O)c2cc(F)c(F)cc2Cl)n1C` [compound 135] registered a melting point of 145 to 146 °C. Also, the IC50 on human CB2 receptor came to 11.9 nM.

For `Cc1c(C(C)(C)C)s/c(=N\C(=O)c2cc(F)c(Cl)cc2Cl)n1C` [compound 136], the melting point fell in the range of 205 to 207 °C. The IC50 on human CB2 receptor was 11.6 nM.

Take `Cc1ccc(F)cc1C(=O)/N=c1\sc(C(C)(C)C)c(C)n1C` [compound 138]: the melting point is 145 to 146 °C. Also, the IC50 on human CB2 receptor stood at 12 nM.

`Cc1c(Cl)cccc1C(=O)/N=c1\sc(C(C)(C)C)c(C)n1C` [compound 139] had a melting point of 161 to 162 °C. Also, the IC50 at human CB2 receptor was 7.4 nM.

The molecule `Cc1c(Br)cccc1C(=O)/N=c1\sc(C(C)(C)C)c(C)n1C` [compound 140] had a melting point of 143 to 144 °C. At human CB2 receptor, the IC50 amounted to 6.1 nM.

`Cc1c(C(C)(C)C)s/c(=N\C(=O)c2cccc(C(F)(F)F)c2F)n1C` [compound 141]: the melting point was 176 to 178 °C. At human CB2 receptor, the IC50 is 13.9 nM.
